{"source": "PubChem BioAssay (NCI)", "assay_in_all_cases": "DTP human tumour cell line panel, 384-well format", "key": {"T-47D breast": {"system": "T-47D breast"}, "MOLT-4 leukemia": {"system": "MOLT-4 leukemia"}, "A498 renal": {"system": "A498 renal"}, "BT-549 breast": {"system": "BT-549 breast"}, "OVCAR-8 ovarian": {"system": "OVCAR-8 ovarian"}, "HL-60(TB) leukemia": {"system": "HL-60(TB) leukemia"}, "U251 glioblastoma": {"system": "U251 glioblastoma"}, "HOP-62 NSCLC": {"system": "HOP-62 NSCLC"}, "OVCAR-4 ovarian": {"system": "OVCAR-4 ovarian"}, "SK-OV-3 ovarian": {"system": "SK-OV-3 ovarian"}, "NCI-H23 lung": {"system": "NCI-H23 lung"}, "SK-MEL-28 melanoma": {"system": "SK-MEL-28 melanoma"}, "786-0 renal": {"system": "786-0 renal"}}, "note": "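GI50 marks 50% less growth. At the TGI there is no net growth.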", "data": [{"compound": "Cc1cc2c(C(C)C)c(O)c(O)c(C=O)c2c(O)c1-c1c(C)cc2c(C(C)C)c(O)c(O)c(C=O)c2c1O", "note": "(tested in a mixture with another compound)", "values": [{"measurement": "GI50", "setting": "T-47D breast", "result": 1700, "unit": "nM"}, {"measurement": "TGI", "setting": "T-47D breast", "result": 3410, "unit": "nM"}, {"measurement": "GI50", "setting": "MOLT-4 leukemia", "result": 765, "unit": "nM"}, {"measurement": "TGI", "setting": "MOLT-4 leukemia", "result": 2010, "unit": "nM"}, {"measurement": "GI50", "setting": "A498 renal", "result": 2410, "unit": "nM"}, {"measurement": "TGI", "setting": "A498 renal", "result": 9870, "unit": "nM"}, {"measurement": "GI50", "setting": "BT-549 breast", "result": 1530, "unit": "nM"}, {"measurement": "TGI", "setting": "BT-549 breast", "result": 2940, "unit": "nM"}, {"measurement": "GI50", "setting": "OVCAR-8 ovarian", "result": 1750, "unit": "nM"}, {"measurement": "TGI", "setting": "OVCAR-8 ovarian", "result": 3240, "unit": "nM"}, {"measurement": "GI50", "setting": "HL-60(TB) leukemia", "result": 1690, "unit": "nM"}, {"measurement": "TGI", "setting": "HL-60(TB) leukemia", "result": 3090, "unit": "nM"}, {"measurement": "GI50", "setting": "U251 glioblastoma", "result": 1590, "unit": "nM"}, {"measurement": "TGI", "setting": "U251 glioblastoma", "result": 3020, "unit": "nM"}, {"measurement": "GI50", "setting": "HOP-62 NSCLC", "result": 2240, "unit": "nM"}, {"measurement": "TGI", "setting": "HOP-62 NSCLC", "result": 3900, "unit": "nM"}, {"measurement": "GI50", "setting": "OVCAR-4 ovarian", "result": 2850, "unit": "nM"}, {"measurement": "TGI", "setting": "OVCAR-4 ovarian", "result": 7520, "unit": "nM"}, {"measurement": "GI50", "setting": "SK-OV-3 ovarian", "result": 2580, "unit": "nM"}, {"measurement": "TGI", "setting": "SK-OV-3 ovarian", "result": 6670, "unit": "nM"}, {"measurement": "GI50", "setting": "NCI-H23 lung", "result": 1840, "unit": "nM"}, {"measurement": "TGI", "setting": "NCI-H23 lung", "result": 4060, "unit": "nM"}, {"measurement": "GI50", "setting": "SK-MEL-28 melanoma", "result": 1590, "unit": "nM"}, {"measurement": "TGI", "setting": "SK-MEL-28 melanoma", "result": 3130, "unit": "nM"}, {"measurement": "GI50", "setting": "786-0 renal", "result": 1890, "unit": "nM"}, {"measurement": "TGI", "setting": "786-0 renal", "result": 3610, "unit": "nM"}]}]}
